PubChem BioAssay AID1996
≈ marks a conversion by molar mass, not a printed value.

settings: buffer; pH 7.4; 200.0 µM

| Structure (SMILES) | solubility kinetic [µg/mL] |
| --- | --- |
| Nc1cc(S(=O)(=O)Nc2ccc(Cl)cc2)ccc1N1CCOCC1 | > 55.2 |
| O=C(COC(=O)c1cc(=O)c2ccccc2o1)Nc1ccccc1F | > 51.2 |
| O=C(Cn1ncc(Cl)c(Cl)c1=O)NC1CCCCC1 | > 45.6 |
| O=C(Nc1cccnc1)c1ccccc1-c1ccccc1 | > 41.1 |
| COc1ccccc1CNC(=O)COC(=O)/C=C/c1ccc2c(c1)OCO2 | 5.4 (≈ 14.6 µM) |
| CN(C(=O)CCl)C1CCCc2ccccc21 (stereo not given) | 32.1 (≈ 135 µM) |
| CCN(CC)CCNC(=O)C(Oc1ccccc1)Oc1ccccc1 | 45.8 (≈ 134 µM) |
| O=C(CSc1cccc[n+]1[O-])Nc1ccccc1C(F)(F)F | > 49.2 |
| COCCNCC(=O)N1CCCCCC1.O=C(O)C(=O)O | > 45.7 |
| Cc1ccc(OCC(O)CNC(C)c2ccccc2)cc1C.Cl (stereo not given) | 45.9 |
| Nc1nc(-c2ccc3c(c2)CCCC3)c(CC(=O)O)s1 | 42.3 (≈ 147 µM) |
| COc1ccc(OCCCN2CCc3ccccc3C2)cc1.Cl | 36.5 |
| O=C(O)c1ccccc1C(=O)NC1CCCCNC1=O (stereo not given) | > 41.4 |
| C=CCNC(=O)c1ccc(-c2nc3ccccc3nc2-c2ccccc2)cc1 | 11.7 (≈ 32 µM) |
| CCOC(=O)C1=C(Nc2ccc(OC)cc2)OCC1=O | 39.5 (≈ 142 µM) |
| Cc1noc(NS(=O)(=O)c2ccc(NC(=O)CC(C)C)cc2)c1C | > 52.7 |
| Cc1ccc(S(=O)(=O)Nc2ccc3nc(C)sc3c2)c(C)c1 | 30 (≈ 90.2 µM) |
| Cc1ccc(S(=O)(=O)NC(C)(C)CSc2ncccn2)cc1 | > 50.6 |
| CN(Cc1ccccc1)c1ccc(N2C(=O)CCC2=O)cc1[N+](=O)[O-] | 38.7 (≈ 114 µM) |
| Cc1ccnc(NC(=O)c2cccc(S(=O)(=O)N3CCCC3)c2)c1 | 43.1 (≈ 125 µM) |
| O=C(Nc1ccccc1N1CCCC1)c1ccc2ccccc2c1 | 2.7 (≈ 8.53 µM) |
| O=C(Nc1ccc2ccccc2c1)c1ccccc1O | 0.7 (≈ 2.66 µM) |
| N/C(=N\OC(=O)c1cccc(C(F)(F)F)c1)c1cnccn1 | 2.4 (≈ 7.74 µM) |
| CCN1CCN(C(=O)C(N)Cc2ccccc2)CC1 (stereo not given) | 37.5 (≈ 143 µM) |

| Structure (SMILES) | solubility kinetic [µg/mL] |
| --- | --- |
| CS(=O)(=O)N1CCC(C(=O)Nc2ccc(F)cc2)CC1 | > 45.1 |
| COC(=O)C(Cc1cccc(C)n1)(c1ccccc1)c1ccccc1 | 14.2 (≈ 42.8 µM) |
| O=c1c2c([N+](=O)[O-])cc([N+](=O)[O-])cc2nc2ccccn12 | 3.2 (≈ 11.2 µM) |
| N/C(=N\OC(=O)C1CCCCC1)c1ccc(Cl)cc1 | 8.1 (≈ 28.9 µM) |
| CC(C)CC(NC(N)=O)C(=O)NCc1ccc(Cl)cc1 (stereo not given) | 35.3 (≈ 119 µM) |
| N#CC1(C#N)C(C(=O)C23CC4CC(CC(C4)C2)C3)C12CCOCC2 (stereo not given) | 3.3 (≈ 10.2 µM) |
| N#Cc1ccccc1CCN1C(=O)c2ccccc2C1=O | 19.6 (≈ 70.9 µM) |
| COc1cc2ccccc2cc1C(=O)N1CC(C)OC(C)C1 (stereo not given) | > 44.9 |
| CCCCC(CC)COCCCN=Cc1c(O)[nH]c(=S)[nH]c1=O (stereo not given) | 4.1 (≈ 12 µM) |
| O=C(c1cccc([N+](=O)[O-])c1)N1CCc2ccccc21 | 2.1 (≈ 7.83 µM) |
| CCOC(=O)C1CCCN(CCc2ccccc2)C1 (stereo not given) | 32.1 (≈ 123 µM) |
| CSc1cccc(-n2ccc(=O)c(C)c2C)c1 | > 36.8 |
| O=C(CN1C(=O)NC2(CCCC2)C1=O)NCCc1ccc(F)cc1 | 44.4 (≈ 133 µM) |
| O=C(CSc1nccc(-c2cccs2)n1)Nc1ccccc1 | 2.3 (≈ 7.02 µM) |
| O=C(OCC(=O)N1CCC(Cc2ccccc2)CC1)c1ccccc1O | 2.2 (≈ 6.22 µM) |
| COC(=O)c1ccc(NC(=S)NC2CC2)cc1 | > 37.5 |
| Cc1noc2ncnc(Oc3ccccc3Cl)c12 | 28 (≈ 107 µM) |
| CN1CCOCCOc2ccccc2OCCOCC1 | > 42.2 |
| CC(C)c1ccc(OCC(=O)N2CCCN(C)CC2)cc1 | > 43.6 |
| CCOC(=O)C1(Cc2cccc(Cl)c2)CCCN(CCO)C1 (stereo not given) | 47.9 (≈ 147 µM) |
| Cc1ccc2c(c1)c1ncn(Cc3ccc(F)cc3)c(=O)c1n2C | 0.3 (≈ 0.934 µM) |
| CCCSc1nsc(NC(=O)CCC)n1 | 10.8 (≈ 44 µM) |
| CC(=O)c1ccc(NC(=O)C2C3CCC(C3)C2C(=O)O)cc1 (stereo not given) | > 45.2 |
| Cc1ccc2c(c1)CCCN2C(=O)CSc1ccccc1 | 19.5 (≈ 65.6 µM) |

| Structure (SMILES) | solubility kinetic [µg/mL] |
| --- | --- |
| CC(NC(=O)COc1ccccc1)C(c1cccs1)N1CCCC1 (stereo not given) | > 51.7 |
| O=[N+]([O-])c1cccc(N=Cc2sc3ccccc3c2O)c1 | < 0.3 |
| CCC1(c2ccccc2)NC(=O)N(CC(=O)N(c2ccccc2)C2CCS(=O)(=O)C2)C1=O (stereo not given) | 38 (≈ 83.4 µM) |
| CSCCC(NC(=O)c1cccc(C)c1)C(=O)O (stereo not given) | > 40.1 |
| COc1ccccc1Sc1nc(-c2ccccc2)ncc1OC | 1.1 (≈ 3.39 µM) |
| Cc1ccc2c(c1)N(CC(=O)N1CCCC(C)C1)C(=O)CO2 (stereo not given) | 45.3 (≈ 150 µM) |
| CC1CCCN(c2c3c(nc4ccccc24)CCCC3)C1 (stereo not given) | 0.6 (≈ 2.14 µM) |
| O=C(COC(=O)c1ccc([N+](=O)[O-])s1)NNC(=O)c1ccccc1 | > 52.4 |
| Cc1ccc(NC(=O)CN(C)C(=O)Cc2c[nH]c3ccccc23)cc1 | > 50.3 |
| O=C(CCNc1ccccc1)c1cccc([N+](=O)[O-])c1 | 32.7 (≈ 121 µM) |
| COc1ccc(OC)c(S(=O)(=O)NCC(=O)O)c1 | 34.1 (≈ 124 µM) |
| c1ccc(OCCCn2ccnc2)cc1 | 25.1 (≈ 124 µM) |
| COc1ccc(NC(=O)CCc2ccc(OC)c(OC)c2)cn1 | > 47.5 |
| O=C(COc1ccc(Oc2ccccc2)cc1)NC1CCS(=O)(=O)C1 (stereo not given) | > 54.2 |
| N#CCc1ccc(Oc2ncccn2)cc1 | > 31.7 |
| CN(C)NC(=O)c1csnc1-c1c(Cl)cccc1Cl | > 47.4 |
| C/C(=C\c1cccc(Cl)c1)C(=O)c1c(C)cc(C)[nH]c1=O | > 45.3 |
| O=C(COC(=O)C1=COCCO1)Nc1ccc(Cl)cn1 | > 44.8 |
| CCSc1nsc(NC(=O)Nc2cccc(OC)c2)n1 | 1.7 (≈ 5.48 µM) |
| CCOC(=O)c1cc2ccccc2n1CC(=O)c1ccccc1 | < 0.7 |
| CC(=O)Nc1c(C)nn(-c2ccc([N+](=O)[O-])cc2)c1C | > 41.1 |
| Cn1c(=O)c(C(=O)c2ccc(S(C)(=O)=O)c(Cl)c2Cl)c(O)c2ccccc21 | > 63.9 |
| OCCN1CCN(CC(O)C(F)(F)F)CC1 (stereo not given) | > 36.3 |
| Cc1cc(=O)[nH]c(SCC(=O)Nc2ccc3c(c2)OCCO3)n1 | > 50 |

| Structure (SMILES) | solubility kinetic [µg/mL] |
| --- | --- |
| Cc1cc(/C=C\c2ccccc2)nc2ccccc12 | < 0.5 |
| CCCc1cc(=O)[nH]c(SCC(=O)Nc2ccc(Br)cc2)n1 | 1.1 (≈ 2.88 µM) |
| COc1ccc(CCNC(=O)COc2ccc3c(C)cc(=O)oc3c2)cc1 | 6 (≈ 16.3 µM) |
| Cc1ccc(C2(C)NC(=O)N(CC(=O)N3CCc4ccccc43)C2=O)cc1 (stereo not given) | 3.6 (≈ 9.91 µM) |
| OCC1OC(n2cnc3c(NCCc4ccccc4)ncnc32)C(O)C1O (stereo not given) | > 55.7 |
| Cc1ccc(CN(C)C(=O)c2cc(S(=O)(=O)N3CCOCC3)ccc2F)o1 | > 59.5 |
| COCCSc1ccccc1C(=O)Nc1ccc(Cl)cc1 | 44.1 (≈ 137 µM) |
| CCCCCCCCNC1=CC(=O)CC(C)(C)C1 | 12.5 (≈ 49.7 µM) |
| CN(C)/C=C(\C#N)S(=O)(=O)c1ccccc1 | > 35.4 |
| COc1cc2c(cc1OC)C(c1cccc([N+](=O)[O-])c1)NC(=O)C2 (stereo not given) | 26.1 (≈ 79.5 µM) |
| CC(C)c1nc2cc(C(=O)NC(C)c3cnn(C)c3)ccc2o1 (stereo not given) | > 46.9 |
| COc1ccc(C2C3=C(CCCC3=O)NC3=C2C(=O)c2ccccc23)cc1 (stereo not given) | < 0.8 |
| CC(C)N1C(=O)CCC1C(=O)N1CCN(c2ccc(F)cc2)CC1 (stereo not given) | > 50 |
| CC(C(=O)N(C)C1CCCCC1)N1CCC(C(N)=O)CC1 (stereo not given) | 43.1 (≈ 146 µM) |
| CN1CCc2c(sc(/N=C/c3c[nH]c4ccccc34)c2C(N)=O)C1 | 10.2 (≈ 30.1 µM) |
| O=C(O)C1C2CCC(C2)C1C(=O)Nc1ccccc1 (stereo not given) | 38.8 (≈ 150 µM) |
| COc1cccc(/C=C/C(=O)NCc2ccc3c(c2)OCO3)c1 | 11.4 (≈ 36.6 µM) |
| Cc1onc(-c2ccccc2)c1C(=O)NC(C)CCc1ccccc1 (stereo not given) | 1.1 (≈ 3.29 µM) |
| Cc1ccc(CC2CC(=O)N(c3nc4ccccc4s3)C2=O)cc1 (stereo not given) | 10.3 (≈ 30.6 µM) |
| CC(C)c1ccc(CNc2ncccn2)cc1.O=C(O)C(=O)O | 31.3 |
| Cc1cc2nc(/C(C#N)=C/c3ccncc3)[nH]c2cc1C | 1.7 (≈ 6.2 µM) |
| Oc1ccccc1C=NCCCCCCN=Cc1ccccc1O | 47.4 (≈ 146 µM) |
| Cl.O=C(NCCCn1ccnc1)c1ccccc1F | > 42.6 |
| N#CC(C#N)=Cc1c[nH]c(=O)c(C#N)c1Nc1ccccc1 | > 43.1 |

| Structure (SMILES) | solubility kinetic [µg/mL] |
| --- | --- |
| O=C(Nc1cc(Cl)cc(Cl)c1)C1CCCC1 | < 0.6 |
| Cc1ccc(C(=O)NCC(c2ccco2)N2CCOCC2)cc1 (stereo not given) | > 47.2 |
| COc1ccc2c(c1OC)C(=O)N(c1cccc(/C=C/C(=O)O)c1)C2 | > 50.9 |
| CC(Oc1ccc(Cl)cc1)C(=O)NCC1CCCO1 (stereo not given) | 41.5 (≈ 146 µM) |
| COc1cc(OC)cc(C(=O)O/N=C(\N)c2ccccn2)c1 | 40.6 (≈ 135 µM) |
| Cc1ccc(NC(=O)CCC(=O)c2cccs2)cc1F | 4.3 (≈ 14.8 µM) |
| COCc1c(C(=O)NC2CCCCCC2)oc2ccccc12 | 10.4 (≈ 34.5 µM) |
| O=C(Nc1ccccc1)C1CC(=O)N(Cc2ccccc2)C1 (stereo not given) | > 44.2 |
| CCOc1ccc(Oc2ccccc2NC(=O)CCNC(C)=O)cc1 | > 51.4 |
| Nc1cc(=O)[nH]c(SCC(=O)Nc2cccc(S(=O)(=O)N3CCCCCC3)c2)n1 | 11.7 (≈ 26.7 µM) |
| Cc1cccc(Cc2nnc(CCC(=O)N(C)Cc3ccncc3C)o2)c1 | > 54.7 |
| Cc1cc2oc(C(=O)Nc3nonc3C)c(C)c2cc1Cl | < 0.2 |
| O=C(NC(=O)c1ccccc1)Nc1ccccc1O | 2.1 (≈ 8.19 µM) |
| Nc1ccc(-c2nc3cc(N)ccc3o2)cc1 | > 33.8 |
| CCOC(=O)c1c(C)[nH]c(C)c1C(=O)COC(=O)c1ccc(Cl)nc1 | > 54.7 |
| O=C(COc1ccccc1Cl)NCCCNC(=O)c1ccco1 | > 50.5 |
| CCCCCC1CCC(C(=O)N2CCOCC2)CC1 (stereo not given) | 27.7 (≈ 104 µM) |
| O=C(CNC(=O)c1ccc(Br)o1)Nc1ccccc1 | 6.7 (≈ 20.7 µM) |
| Fc1cccc(F)c1-c1nc(-c2ccc(Cl)cc2)no1 | < 0.3 |
| CCC1CCCCN1C(=O)COc1ccc(F)cc1 (stereo not given) | 38.1 (≈ 144 µM) |
| CCOc1ccc(CNCCN2CCCC2)cc1.O=C(O)C(=O)O | 28.2 |
| COC(=O)/C=C1/SC(=NC(=O)c2ccc(F)cc2)NC1=O | > 46.2 |
| CCCN1CN(c2ccccc2)C(=S)N(c2ccccc2)C1 | > 46.7 |
| O=C(NCc1cccnc1)Nc1ccc(Cl)cc1Cl | > 44.4 |
